No end group written: not given here.
Legend:
[1] = tested on: lytic activity of D222D clone 2 against peptide-pulsed LCL target cells; test: Cytotoxic mechanism: ZnT8-specific lysis of LCL targets by D222D clone 2 in the presence of inhibitors; format: cell-based, human; conditions: 4 h co-culture; concanamycin A 100 nM, brefeldin A 5 μg/ml, anti-FasL mAb 5 μg/ml
Procedure: FIG. 6. […]; left to right). Live FarRed^+ target cells were counted at the end of the culture and normalized to a fixed amount of beads added to each well. Percent lysis is noted for each dot plot, calculated as 100×(live targets cultured alone)−(live targets in the presence of T cells)/(live targets cultured alone). B. Lysis of LCL targets pulsed with the indicated peptides and cultured with D222D clones at different E/T ratios. Percent lysis was calculated as above and depicted as mean±SEM of two independent experiments with clone 2 and 3, with data depicted in panel (A) used for clone 3. Similar profiles were obtained for clone 1 (not shown). C. ZnT8-specific lysis of peptide-pulsed LCL target cells co-cultured for 4 h with D222D clone 2 without inhibitors (−) or in the presence of concanamycin A (CMA, 100 nM), brefeldin A (BFA, 5 μg/ml), anti-FasL mAb (aFasL, clone NOK-1; 5 μg/ml) or IgG1 isotype control. *p<0.05 by Wilcoxon signed-rank test. Results are mean±SEM of triplicate measurements from one representative experiment out two performed.
LCL pulsed with 10 μM of the indicated peptide, K562-A2/ZnT8 or K562/A2 target cells were labeled with CellTrace FarRed (Life Technologies) and dispensed in 96-well flat-bottom plates at 10^5/well. Different numbers of CFSE-labeled T cells were added and co-cultured for 6-24 h, as indicated. […]

[2] = molecular target: recombinant HLA-A2 molecules (Homo sapiens, UniProt P04439, /I119V/I121R/I166T/I218V/N151K/N90K/P208A/P217A/Q86G/Q94H/R138H/R169H); test: Affinity and stability measurements of recombinant HLA-A2 molecules complexed with peptide; format: binding
[3] = molecular target: recombinant HLA-A2 molecules (Homo sapiens, UniProt P04439, D140Y/D185E/D98H/E176V/E277Q/G131W/G231S/I119V/I121R/I166T/I218V/N151K/N90K/P208A/P217A/Q86G/Q94H/R138H/R169H); test: as above; format: binding; conditions: recombinant HLA-A2 complexed with peptide; data not shown

Row | Molecule | inhibition of lytic activity [1] | also measured
1 | C/C=C/[C@H]1O[C@@](O)([C@@H](C)[C@H](O)[C@H](C)[C@H]2OC(=O)/C(OC)=C/C(C)=C/[C@@H](C)[C@@H](O)[C@@H](CC)[C@@H](O)[C@H](C)C/C(C)=C/C=C/[C@@H]2OC)C[C@@H](O[C@H]2C[C@@H](O)[C@H](OC(N)=O)[C@@H](C)O2)[C@@H]1C [concanamycin A] | completely inhibited | 
2 | VAANIVLTV [ZnT8186-194] |  | Kd [2]: 15 nM
3 | AVAANIVLTV [ZnT8185-194] |  | Kd [3]: 207 nM
4 | C[C@H]1CCC/C=C/[C@@H]2C[C@H](O)C[C@H]2[C@H](O)/C=C/C(=O)O1 [brefeldin A] | not | 

Reference: patent publication US11078251B2, “T cell receptors (TCR) and uses thereof for the diagnosis and treatment of diabetes” (INSERM (INSTITUT NATIONAL DE LA SANTÉ ET DE LA RECHERCHE …, priority 2015, dated 2021)
